Patent US12173018B2, “Penicillin-binding protein inhibitors” (priority 2018, dated 2024)
Like-named read-outs stand apart in the source and are kept apart here.

How the values were obtained:
[1] = target: E. coli PBP3 (Escherichia coli (strain K12), UniProt P0AD68); assay: E. coli PBP3 Bocillin-FL fluorescence polarization competition binding assay
Description: To determine the ability of boronic acid-based test PBP inhibitors to bind Penicillin Binding Proteins (PBPs), Bocillin-FL (fluorescently-labeled penicillin V; ThermoFisher Scientific) was used in a fluorescence polarization (FP) competition binding assay to assess inhibitor binding to PBP2, PBP3 or PBP4 from Escherichia coli. PBPs were cloned and purified as described previously (King, D. T, et al., ACS Infectious Diseases 2015, 1, 175-184). To establish assay conditions for competition binding, an enzyme titration/saturation binding experiment was initially performed. Bocillin-FL was prepared at 0.2 μM in a buffer comprised of 50 mM Hepes (pH 8.0), 300 mM NaCl and 5% (v/v) glycerol. Saturation binding was performed by mixing 40 μl of PBP solutions ranging in concentrations from 0-12 μM with 40 μl of the 0.2 μM Bocillin-FL solution, in individual wells of a black 384-well microplate. FP was measured immediately upon mixing (Excitation, 490 nm; Emission, 520 nm; g-factor, 0.96), using a Cytation3 (BioTek) microplate reader and measured continuously for up to 120 minutes. […] Assays (80 μl final volume) were performed with PBPs at a final concentration of 1.5 μM, Bocillin-FL at 0.1 μM and beta-lactam concentrations that ranged from 0-1000 μM. […] Bocillin-FL was added and the FP immediately measured for 60 minutes (90 minutes for PBP2). The beta-lactam potency was reported as the concentration of beta-lactam required to reduce binding of Bocillin-FL by […] (EC50). […] Binding assays for boronic acid PBP inhibitors were performed in an identical fashion.

[2] = system: E. coli ATCC 25922; assay: Broth microdilution MIC, E. coli ATCC 25922; format: cell-based; conditions: Escherichia coli, ATCC25922; E. coli ATCC 25922, broth microdilution; read-out: MIC E. coli 25922
Experimental: (§1) To determine the ability of test compounds to potentiate the inhibition of the growth of bacterial strains, classic cell based broth microdilution minimum inhibitory concentration (MIC) assays were employed. MIC assays are performed according to CLSI methods except where otherwise noted (CLSI, 2011 and CLSI, 2009). The reference type strain E. coli ATCC 25922, the wild-type parent strain E. coli AG100, the hyper-permeable E. coli 901C and E. coli D22 and the E. coli AG100A strain lacking the acrAB efflux pump encoding genes were used to determine the ability of the PBP inhibitors to penetrate the outer membrane of gram-negative bacteria and inhibit bacterial growth. […] The P. aeruginosa PAO1, P. aeruginosa ATCC 27853 and A. baumannii ATCC 19606, along with the hyper-permeable P. aeruginosa ATCC 35151 and an engineered efflux pump-compromised strain of P. aeruginosa (ΔmexAB-oprM) were used to determine the ability of PBP inhibitors to penetrate the outer membrane of P. aeruginosa and A. baumannii and assess antibacterial activity against these important gram-negative organisms.
(§2) Briefly, cryo-preserved bacterial cultures of challenge strains are streaked for isolation on appropriate agar medium, in this case Mueller Hinton II agar. Following incubation to allow growth of the colonies, plates are sealed with parafilm and stored refrigerated for up to two weeks. For preparation of assay inoculum and to ensure low variability, at least 5 colonies are picked from the agar plates with an inoculating loop and aseptically transferred to a culture tube containing 3 mL of Mueller-Hinton Broth (supplemented with divalent cations to required levels based on Manufacturers' certification). The broth culture is grown for 3-5 hours at 37° C. with shaking at 200 rpm. Meanwhile, 2-fold serial dilutions of test compounds are conducted in a 96 well plate with a final volume of 75 μL per well at 2-fold the final desired concentration. After the dilution plates are set up the growing cultures are then diluted in a cuvette containing MH II broth and the optical density is measured at 600 nm. The Inoculum is diluted such that 75 μL of this culture in Mueller-Hinton Broth results in a starting bacterial concentration of 5×10^5 CFU/mL when added to the dilution plates. The plates are incubated for 16-20 hours at 37° C. The MIC values are read visually as the lowest concentration well with no bacterial growth.

[3] = system: E. coli AG100; assay: Broth microdilution MIC, E. coli AG100 (wild-type parent); format: cell-based; conditions: Escherichia coli; wild-type parent E. coli AG100, broth microdilution; read-out: MIC E. coli AG100
Experimental: To determine the ability of test compounds to potentiate the inhibition of the growth of bacterial strains, classic cell based broth microdilution minimum inhibitory concentration (MIC) assays were employed.
as §2

[4] = system: K. pneumoniae UMM; assay: microbe, parasite or virus in culture; format: cell-based; conditions: Klebsiella pneumoniae; K. pneumoniae UMM producing SHV-5 and KPC-2; read-out: MIC K. pneumoniae UMM
Experimental: as §1, §2

[5] = system: E. coli AG100A; assay: microbe, parasite or virus in culture; format: cell-based; conditions: Escherichia coli, read-out: MIC E. coli AG100A
Experimental: as §1, §2

[6] = system: K. pneumoniae SI-117; assay: microbe, parasite or virus in culture; format: cell-based; conditions: Klebsiella pneumoniae, SI117, read-out: MIC K. pneumoniae SI-117
Experimental: as §1, §2

[7] = system: E. coli D22; assay: microbe, parasite or virus in culture; format: cell-based; conditions: Escherichia coli; hyper-permeable E. coli D22, broth microdilution; read-out: MIC E. coli D22
Experimental: as §1, §2

[8] = system: E. coli 901C; assay: microbe, parasite or virus in culture; format: cell-based; conditions: Escherichia coli; hyper-permeable E. coli 901C, broth microdilution; read-out: MIC E. coli 901C
Experimental: as §1, §2

[9] = system: K. pneumoniae 848844; assay: microbe, parasite or virus in culture; format: cell-based, Klebsiella pneumoniae; conditions: Klebsiella pneumoniae; K. pneumoniae 848844 producing SHV-11 and KPC-2; read-out: MIC K. pneumoniae 848844
Experimental: as §1, §2

[10] = fluorescence polarization competition binding with Bocillin-FL, read-out: E. coli K12 PBP3 Potency

Sequence of E. coli PBP3 (P0AD68 whole entry): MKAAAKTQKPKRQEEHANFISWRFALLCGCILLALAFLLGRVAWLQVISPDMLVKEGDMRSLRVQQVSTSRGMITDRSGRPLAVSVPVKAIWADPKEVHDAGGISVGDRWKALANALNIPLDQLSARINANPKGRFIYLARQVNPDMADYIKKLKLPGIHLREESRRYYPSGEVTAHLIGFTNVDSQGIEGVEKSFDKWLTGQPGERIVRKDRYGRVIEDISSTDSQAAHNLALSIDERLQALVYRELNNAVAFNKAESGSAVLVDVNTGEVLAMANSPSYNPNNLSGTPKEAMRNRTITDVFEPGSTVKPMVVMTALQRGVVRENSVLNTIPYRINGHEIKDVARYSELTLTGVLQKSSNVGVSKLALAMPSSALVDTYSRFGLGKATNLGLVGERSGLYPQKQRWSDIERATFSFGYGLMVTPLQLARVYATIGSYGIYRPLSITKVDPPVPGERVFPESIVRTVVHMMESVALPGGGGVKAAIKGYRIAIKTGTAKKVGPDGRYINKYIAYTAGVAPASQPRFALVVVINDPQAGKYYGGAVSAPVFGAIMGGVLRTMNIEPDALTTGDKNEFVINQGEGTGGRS

SMILES	EC50 [1, 10] [µM]	MIC [2] [µg/mL]	MIC [3] [µg/mL]	MIC [4] [µg/mL]	MIC [5] [µg/mL]	MIC [6] [µg/mL]	MIC [7] [µg/mL]	MIC [8] [µg/mL]	MIC [9] [µg/mL]	EC50 [1] [µM]
CCN1CCN(C(=O)NC(C(=O)N[C@H]2Cc3cc(F)c(F)c(C(=O)O)c3OB2O)c2ccc(O)c(O)c2Cl)C(=O)C1=O (stereo partly drawn) [Example 180, (3R)-3-(2-(2-chloro-3,4-dihydroxyphenyl)-2-(4-ethyl-2,3-dioxopiperazine-1-carboxamido)acetamido)-6,7-difluoro-2-hydroxy-3,4-dihydro-2H-benzo[e][1,2]oxaborinine-8-carboxylic acid]	< 30	8 to 16	2 to 4	0.5 to 1	0.5 to 1	2 to 4	2 to 4	0.5 to 1	2 to 4	–
CCN1CCN(C(=O)NC(C(=O)N[C@H]2Cc3ccc(F)c(C(=O)O)c3OB2O)c2cccnc2)C(=O)C1=O (stereo partly drawn) [Example 141, (3R)-3-(2-(4-ethyl-2,3-dioxopiperazine-1-carboxamido)-2-(pyridin-3-yl)acetamido)-7-fluoro-2-hydroxy-3,4-dihydro-2H-benzo[e][1,2]oxaborinine-8-carboxylic acid]	–	> 128	> 128	32 to 64	32 to 64	> 128	8 to 16	2 to 4	> 128	30 to 500
CCN1CCN(C(=O)N[C@H](C(=O)N[C@H]2Cc3cccc(C(=O)O)c3OB2O)c2ccc(O)c(F)c2)C(=O)C1=O [Example 155, (R)-3-((S)-2-(4-ethyl-2,3-dioxopiperazine-1-carboxamido)-2-(3-fluoro-4-hydroxyphenyl)acetamido)-2-hydroxy-3,4-dihydro-2H-benzo[e][1,2]oxaborinine-8-carboxylic acid]	–	> 128	> 128	> 128	8 to 16	> 128	8 to 16	0.5 to 1	> 128	30 to 500
CCN1CCN(C(=O)N[C@H](C(=O)N[C@H]2Cc3cccc(C(=O)O)c3OB2O)c2ccc(S(N)(=O)=O)c(O)c2)C(=O)C1=O [Example 166, (R)-3-((S)-2-(4-ethyl-2,3-dioxopiperazine-1-carboxamido)-2-(3-hydroxy-4-sulfamoylphenyl)acetamido)-2-hydroxy-3,4-dihydro-2H-benzo[e][1,2]oxaborinine-8-carboxylic acid]	–	32 to 64	32 to 64	32 to 64	2 to 4	> 128	2 to 4	< 0.25	> 128	30 to 500
CCN1CCN(C(=O)N[C@H](C(=O)N[C@H]2Cc3cccc(C(=O)O)c3OB2O)c2ccc(S(N)(=O)=O)c(OC)c2)C(=O)C1=O [Example 168, (R)-3-((S)-2-(4-ethyl-2,3-dioxopiperazine-1-carboxamido)-2-(3-methoxy-4-sulfamoylphenyl)acetamido)-2-hydroxy-3,4-dihydro-2H-benzo[e][1,2]oxaborinine-8-carboxylic acid]	–	> 128	> 128	> 128	8 to 16	> 128	8 to 16	0.5 to 1	> 128	30 to 500
CCN1CCN(C(=O)NC(C(=O)N[C@H]2Cc3cccc(C(=O)O)c3OB2O)c2ccc(O)c(O)n2)C(=O)C1=O (stereo partly drawn) [Example 140, (3R)-3-(2-(5,6-dihydroxypyridin-2-yl)-2-(4-ethyl-2,3-dioxopiperazine-1-carboxamido)acetamido)-2-hydroxy-3,4-dihydro-2H-benzo[e][1,2]oxaborinine-8-carboxylic acid]	–	8 to 16	32 to 64	8 to 16	2 to 4	32 to 64	2 to 4	0.5 to 1	32 to 64	30 to 500
CCN1CCN(C(=O)NC(C(=O)N[C@H]2Cc3cccc(C(=O)O)c3OB2O)c2ccc(OCCCN)cc2F)C(=O)C1=O (stereo partly drawn) [Example 209, (3R)-3-(2-(4-(3-aminopropoxy)-2-fluorophenyl)-2-(4-ethyl-2,3-dioxopiperazine-1-carboxamido)acetamido)-2-hydroxy-3,4-dihydro-2H-benzo[e][1,2]oxaborinine-8-carboxylic acid]	–	8 to 16	32 to 64	32 to 64	0.5 to 1	> 128	2 to 4	< 0.25	> 128	30 to 500
NCCN1CCN(C(=O)N[C@H](C(=O)N[C@H]2Cc3cccc(C(=O)O)c3OB2O)c2ncc(O)cc2F)C(=O)C1=O [Example 226, (R)-3-((S)-2-(4-(2-aminoethyl)-2,3-dioxopiperazine-1-carboxamido)-2-(3-fluoro-5-hydroxypyridin-2-yl)acetamido)-2-hydroxy-3,4-dihydro-2H-benzo[e][1,2]oxaborinine-8-carboxylic acid]	–	> 128	32 to 64	32 to 64	8 to 16	> 128	8 to 16	2 to 4	> 128	30 to 500
CCN1CCN(C(=O)NC(C(=O)N[C@H]2Cc3cccc(C(=O)O)c3OB2O)c2ncc(O)cc2C)C(=O)C1=O (stereo partly drawn) [Example 178, (3R)-3-(2-(4-ethyl-2,3-dioxopiperazine-1-carboxamido)-2-(5-hydroxy-3-methylpyridin-2-yl)acetamido)-2-hydroxy-3,4-dihydro-2H-benzo[e][1,2]oxaborinine-8-carboxylic acid]	–	> 128	> 128	> 128	32 to 64	> 128	32 to 64	8 to 16	> 128	30 to 500
CCN1CCN(C(=O)N[C@H](C(=O)N[C@H]2Cc3cccc(C(=O)O)c3OB2O)c2ncc(O)cc2F)C(=O)C1=O [Example 176, (R)-3-((S)-2-(4-ethyl-2,3-dioxopiperazine-1-carboxamido)-2-(3-fluoro-5-hydroxypyridin-2-yl)acetamido)-2-hydroxy-3,4-dihydro-2H-benzo[e][1,2]oxaborinine-8-carboxylic acid]	< 30	32 to 64	32 to 64	32 to 64	2 to 4	32 to 64	2 to 4	< 0.25	> 128	–
